{
  "source": "paper PMC6587565",
  "about": "(Diabetes, Obesity & Metabolism, 2018)",
  "key": {"[1]": {"tested_on": "patients with type 1 diabetes mellitus", "assay": "Safety: adverse events, hypoglycaemic episodes, local tolerability", "type": "in vivo, human"}, "[2]": {"type": "in vivo, human"}, "[3]": {"tested_on": "plasma glucose (PG) in patients with type 1 diabetes mellitus", "type": "in vivo, human", "settings": "for AUE0-30min / AUE0-240min (area under plasma glucose excursions above baseline) / CE30min (plasma glucose excursion at 30 minutes) / CEmax (maximum plasma glucose excursion) / tCEmax (time to maximum plasma glucose excursion) / tPG increase ≥ 20 mg/dL (time to increase in plasma glucose ≥[…]) / tPG ≥70 mg/dL (time to reach plasma glucose ≥[…]): T1DM patients; for AUE0-30min / AUE0-240min (area under plasma glucose excursions above baseline) / CE30min (plasma glucose excursion at 30 minutes) / CEmax (maximum plasma glucose excursion): mean (SD), SD; for tCEmax (time to maximum plasma glucose excursion) / tPG increase ≥ 20 mg/dL (time to increase in plasma glucose ≥[…]) / tPG ≥70 mg/dL (time to reach plasma glucose ≥[…]): median (range)"}, "[4]": {"settings": "hypoglycaemia, single s.c. dose 0.03 mg, T1DM patients, mean (SD), N=14, SD"}, "[5]": {"settings": "euglycaemia, single s.c. dose 0.6 mg, N=17"}, "[6]": {"settings": "hypoglycaemia, single s.c. dose 0.03 mg, N=17"}, "[7]": {"settings": "hypoglycaemia, single s.c. dose 0.08 mg, N=17"}, "[8]": {"settings": "hypoglycaemia, single s.c. dose 0.2 mg, N=17"}, "[9]": {"settings": "hypoglycaemia, single s.c. dose 0.6 mg, N=17"}},
  "note": "Where two headings read alike, the source gives them in different places.",
  "data": [
    {"smiles": "CC(C)C[C@H](NC(=O)[C@H](Cc1c[nH]c2ccccc12)NC(=O)[C@H](CCCCN)NC(=O)[C@@H](NC(=O)[C@H](Cc1ccccc1)NC(=O)[C@H](CCC(=O)O)NC(=O)[C@H](CCC(=O)O)NC(=O)[C@H](C)NC(=O)[C@H](CCCNC(=N)N)NC(=O)[C@H](C)NC(=O)C(C)(C)NC(=O)[C@H](CC(=O)O)NC(=O)[C@H](CC(C)C)NC(=O)[C@H](Cc1ccc(O)cc1)NC(=O)[C@H](CCCCN)NC(=O)[C@H](CO)NC(=O)[C@H](Cc1ccc(O)cc1)NC(=O)[C@H](CC(=O)O)NC(=O)[C@H](CO)NC(=O)[C@@H](NC(=O)[C@H](Cc1ccccc1)NC(=O)[C@@H](NC(=O)CNC(=O)[C@H](CCC(N)=O)NC(=O)[C@H](CO)NC(=O)[C@@H](N)Cc1c[nH]cn1)[C@@H](C)O)[C@@H](C)O)C(C)C)C(=O)N[C@@H](CCC(=O)O)C(=O)N[C@@H](CO)C(=O)N[C@H](C(=O)O)[C@@H](C)O", "note": "[Dasiglucagon, dasiglucagon]", "values": [
      {"measurement": "Total hypoglycaemic events", "setting": "[1]; 17 completers, range of small doses (0.03-0.2 mg)", "value": 18},
      {"measurement": "Overall safety and tolerability", "setting": "[1]; all doses (0.03-0.6 mg s.c.)", "value": "safe and well tolerated"},
      {"measurement": "AUC0-inf", "setting": "[2]; euglycaemia, single s.c. dose 0.6 mg, T1DM patients, mean (SD), N=17, SD", "value": "3710 (585) pmol*h/L"},
      {"measurement": "Tmax", "setting": "[2]; euglycaemia, single s.c. dose 0.6 mg, T1DM patients, median (range), N=17", "value": "0.5 (0.25‐1) h"},
      {"measurement": "Tmax", "setting": "[2]; human, plasma, sc, 0.03 mg", "value": 30, "unit": "min"},
      {"measurement": "CL/F", "setting": "[2]; human, plasma, sc, 0.03 mg, SD", "value": 863, "unit": "mL/min"},
      {"measurement": "half-life", "setting": "[2]; human, plasma, sc, 0.03 mg, SD", "value": 22.9, "unit": "min"},
      {"measurement": "Tmax", "setting": "[2]; human, plasma, sc, 0.08 mg", "value": 30, "unit": "min"},
      {"measurement": "CL/F", "setting": "[2]; human, plasma, sc, 0.08 mg, SD", "value": 688, "unit": "mL/min"},
      {"measurement": "half-life", "setting": "[2]; human, plasma, sc, 0.08 mg, SD", "value": 28.4, "unit": "min"},
      {"measurement": "Tmax", "setting": "[2]; human, plasma, sc, 0.2 mg", "value": 30, "unit": "min"},
      {"measurement": "half-life", "setting": "[2]; human, plasma, sc, 0.2 mg, SD", "value": 33.9, "unit": "min"},
      {"measurement": "Tmax", "setting": "[2]; human, plasma, sc, 0.6 mg", "value": 30, "unit": "min"},
      {"measurement": "AUC0-inf", "setting": "[2]; [4]", "value": "182 (45.9) pmol*h/L"},
      {"measurement": "CL/f (total body clearance)", "setting": "[2]; [4]", "value": "52.6 (16.7) L/h"},
      {"measurement": "AUC0-240min", "setting": "[2]; hypoglycaemia, single s.c. dose 0.03 mg, T1DM patients, mean (SD), N=17, SD", "value": "174 (43.1) pmol*h/L"},
      {"measurement": "Tmax", "setting": "[2]; hypoglycaemia, single s.c. dose 0.03 mg, T1DM patients, median (range), N=17", "value": "0.5 (0.25‐1) h"},
      {"measurement": "t1/2 (terminal elimination half-life)", "setting": "[2]; hypoglycaemia, single s.c. dose 0.08 mg, T1DM patients, mean (SD), N=16, SD", "value": "0.472 (0.154) h"},
      {"measurement": "Tmax", "setting": "[2]; hypoglycaemia, single s.c. dose 0.08 mg, T1DM patients, median (range), N=17", "value": "0.5 (0.25‐1) h"},
      {"measurement": "Median time (range) to an increase in PG of at least […] (20 mg/dL)", "setting": "[3]; 0.03 mg s.c., at both euglycaemia and hypoglycaemia", "value": "< 20 (18‐19.5) minutes"},
      {"measurement": "AUE0-30min", "setting": "[3]; [5]", "value": "18.3 (5.25) mg*h/dL"},
      {"measurement": "AUE0-240min (area under plasma glucose excursions above baseline)", "setting": "[3]; [5]", "value": "479 (159) mg*h/dL"},
      {"measurement": "CE30min (plasma glucose excursion at 30 minutes)", "setting": "[3]; [5]", "value": "79.8 (23.4) mg/dL"},
      {"measurement": "CEmax (maximum plasma glucose excursion)", "setting": "[3]; [5]", "value": "165 (46.1) mg/dL"},
      {"measurement": "tCEmax (time to maximum plasma glucose excursion)", "setting": "[3]; [5]", "value": "90.0 (70‐240) min"},
      {"measurement": "tPG increase ≥ 20 mg/dL (time to increase in plasma glucose ≥[…])", "setting": "[3]; [5]", "value": "10.0 (8‐14) min"},
      {"measurement": "Patients achieving a PG level of at least […] within 30 minutes post-dose", "setting": "[3]; hypoglycaemia, dose levels of 0.08 mg and above", "value": 100, "unit": "%"},
      {"measurement": "Patients achieving a PG level of at least […] within 30 minutes post-dose", "setting": "[3]; hypoglycaemia, lowest dose level (0.03 mg)", "value": 70.6, "unit": "%"},
      {"measurement": "AUE0-30min", "setting": "[3]; [6]", "value": "4.60 (5.24) mg*h/dL"},
      {"measurement": "AUE0-240min (area under plasma glucose excursions above baseline)", "setting": "[3]; [6]", "value": "70.6 (100) mg*h/dL"},
      {"measurement": "CE30min (plasma glucose excursion at 30 minutes)", "setting": "[3]; [6]", "value": "23.7 (24.9) mg/dL"},
      {"measurement": "CEmax (maximum plasma glucose excursion)", "setting": "[3]; [6]", "value": "37.9 (38.9) mg/dL"},
      {"measurement": "tPG increase ≥ 20 mg/dL (time to increase in plasma glucose ≥[…])", "setting": "[3]; hypoglycaemia, single s.c. dose 0.03 mg, N=10", "value": "19.5 (12‐42) min"},
      {"measurement": "tPG ≥70 mg/dL (time to reach plasma glucose ≥[…])", "setting": "[3]; hypoglycaemia, single s.c. dose 0.03 mg, N=13", "value": "14.0 (5‐37) min"},
      {"measurement": "tCEmax (time to maximum plasma glucose excursion)", "setting": "[3]; [6]", "value": "50.0 (0‐90) min"},
      {"measurement": "AUE0-30min", "setting": "[3]; [7]", "value": "14.3 (10.1) mg*h/dL"},
      {"measurement": "AUE0-240min (area under plasma glucose excursions above baseline)", "setting": "[3]; [7]", "value": "249 (201) mg*h/dL"},
      {"measurement": "CE30min (plasma glucose excursion at 30 minutes)", "setting": "[3]; [7]", "value": "63.9 (38.6) mg/dL"},
      {"measurement": "CEmax (maximum plasma glucose excursion)", "setting": "[3]; [7]", "value": "106 (61.1) mg/dL"},
      {"measurement": "tCEmax (time to maximum plasma glucose excursion)", "setting": "[3]; [7]", "value": "70.0 (50‐90) min"},
      {"measurement": "tPG increase ≥ 20 mg/dL (time to increase in plasma glucose ≥[…])", "setting": "[3]; [7]", "value": "14.0 (7‐48) min"},
      {"measurement": "tPG ≥70 mg/dL (time to reach plasma glucose ≥[…])", "setting": "[3]; [7]", "value": "10.0 (2‐27) min"},
      {"measurement": "AUE0-30min", "setting": "[3]; [8]", "value": "19.0 (6.43) mg*h/dL"},
      {"measurement": "AUE0-240min (area under plasma glucose excursions above baseline)", "setting": "[3]; [8]", "value": "406 (175) mg*h/dL"},
      {"measurement": "CE30min (plasma glucose excursion at 30 minutes)", "setting": "[3]; [8]", "value": "86.8 (27.2) mg/dL"},
      {"measurement": "CEmax (maximum plasma glucose excursion)", "setting": "[3]; [8]", "value": "154 (48.4) mg/dL"},
      {"measurement": "tCEmax (time to maximum plasma glucose excursion)", "setting": "[3]; [8]", "value": "90.0 (70‐150) min"},
      {"measurement": "tPG increase ≥ 20 mg/dL (time to increase in plasma glucose ≥[…])", "setting": "[3]; [8]", "value": "11.0 (8‐20) min"},
      {"measurement": "tPG ≥70 mg/dL (time to reach plasma glucose ≥[…])", "setting": "[3]; [8]", "value": "6.0 (5‐11) min"},
      {"measurement": "AUE0-30min", "setting": "[3]; [9]", "value": "21.9 (5.68) mg*h/dL"},
      {"measurement": "AUE0-240min (area under plasma glucose excursions above baseline)", "setting": "[3]; [9]", "value": "535 (187) mg*h/dL"},
      {"measurement": "CE30min (plasma glucose excursion at 30 minutes)", "setting": "[3]; [9]", "value": "94.2 (21.9) mg/dL"},
      {"measurement": "CEmax (maximum plasma glucose excursion)", "setting": "[3]; [9]", "value": "192 (54.1) mg/dL"},
      {"measurement": "tCEmax (time to maximum plasma glucose excursion)", "setting": "[3]; [9]", "value": "90.0 (70‐150) min"},
      {"measurement": "tPG increase ≥ 20 mg/dL (time to increase in plasma glucose ≥[…])", "setting": "[3]; [9]", "value": "9.00 (8‐14) min"},
      {"measurement": "tPG ≥70 mg/dL (time to reach plasma glucose ≥[…])", "setting": "[3]; [9]", "value": "6.0 (2‐8) min"}
    ]}
  ]
}
